Experimental data reported in the NIST ThermoML archive (doi:10.1016/j.fluid.2017.02.010).
± gives the expanded uncertainty stated by the source.

details: 293.15 K; 101.33 kPa; Liquid; Other PVT measurement

mass density [kg/m3] | SMILES
877 ± 10 | c1ccccc1 [benzene]
940 ± 10 | c1ccc(C2CCCCC2)cc1 [cyclohexylbenzene]
659 ± 10 | CCCCCC [hexane]
810 ± 10 | CCCCCCC1CCCCC1 [hexylcyclohexane]
718 ± 10 | CCCCCCCCC [nonane]
767 ± 10 | CCCCCCCCCCCCCC [tetradecane]

Second part, the compound before the results:

SMILES | mass density [kg/m3]
C1CCC(C2CCCCC2)CC1 [1,1'-bicyclohexyl] | 890 ± 10
CCCC1CCCCC1 [1-cyclohexylpropane] | 790 ± 10
C1CCCCC1 [cyclohexane] | 778 ± 10
CCCCCCCCCCCC [dodecane] | 753 ± 10
CCCCCCCCCCCCCCCC [hexadecane] | 773 ± 10
